What all share (format): cell-based, human
One data set deals with mir-21 miRNA. Kind of data set: pGL3-mir-21 sensor luciferase assay in HeLa cells. The source says:
In order to assess the ability of miRNAs to bind predicted miRNA binding sites and regulate the expression of the luciferase reporter, in some embodiments, expression systems based on the pGL3-Control (Promega Corp., Madison Wis.) reporter vector and comprising either a mir-15a, mir-21, or a mir-23b miRNA binding site were developed and used in transient transfections of HeLa cells to determine whether the endogenous mir-15a, mir-21, or mir-23b miRNAs, respectively, could repress luciferase reporter gene expression.
The pGL3-mir-21 sensor plasmid was created by cloning the sequence ([…]; SEQ ID NO: 335), representing a sequence complementary to the mir-21 miRNA, into the Xba site of the pGL3-Control plasmid, placing the potential miRNA-binding site in the 3′UTR of the luciferase reporter. This reporter plasmid was used to transfect HeLa cells and it was observed that the endogenous mir-21 miRNA was able to inhibit luciferase expression from the pGL3-mir-21 sensor plasmid. Thus, to further evaluate the ability of the mir-21 miRNA to bind this target site encoded by the pGL3-mir-21 sensor plasmid, and to assess the ability of oligomeric compounds to interfere with mir-21-mediated silencing, pGL3-mir-21 sensor-expressing HeLa cells were treated with varying concentrations (10 nM or 50 nM) of the following oligomeric compounds: ISIS Number 327917 (SEQ ID NO: 335), a phosphorothioate uniform 2′-MOE oligomeric compound; ISIS Number 338697 ([…]; herein incorporated as SEQ ID NO: 524), a uniform 2′-MOE oligomeric compound targeting the mir-21 pri-miRNA molecule; and ISIS Number 328415 (SEQ ID NO: 524), a 2′-MOE 5-10-5 gapmer oligomeric compound targeting the mir-21 pri-miRNA. The uniform 2′-MOE phosphorothioate oligomeric compound ISIS Number 327901 (SEQ ID NO: 319) targeting an unrelated miRNA (mir-143) was used as a negative control. The data are the average of three trials and are presented in Table 44 as percent untreated control (luciferase plasmid only, not treated with oligomeric compound) luciferase expression, normalized to pRL-CMV levels.
In one embodiment, the oligomeric compounds ISIS Number 327917 (SEQ ID NO: 335), the phosphorothioate uniform 2′-MOE targeting mature mir-21; ISIS Number 358768 (SEQ ID NO: 918), the uniform 2′-MOE targeting the mir-21 pri-miRNA which stimulated the largest increase in pri-miRNA expression levels by real time quantitative RT-PCR; and ISIS Number 345382 (SEQ ID NO: 335), the 5-10-7 phosphorothioate 2′-MOE gapmer targeting mature mir-21 were selected for dose response studies in HeLa cells using the luciferase reporter system described in Example 27. ISIS Number 342683 (SEQ ID NO: 790), representing the scrambled nucleotide sequence of an unrelated PTP1B antisense oligonucleotide, was used as a negative control. HeLa cells expressing the pGL3-mir-21 sensor plasmid (described in Example 27) were treated with 1.9, 5.5, 16.7, and 50 nM of these oligomeric compounds, to assess the ability of oligomeric compounds to interfere with endogenous mir-21-mediated silencing of the pGL3-mir-21 sensor plasmid. The data are presented in Table 50 as percent untreated control (luciferase plasmid only, not treated with oligomeric compound) luciferase expression, normalized to pRL-CMV levels.

A further data set has as its system mir-21 mature miRNA. Kind of data set: Northern blot of mature mir-21 in HeLa cells. The settings on record: 100 nM. As to the method:
In one embodiment, the expression of mir-21 (noted to be expressed at high levels in HeLa cells) was assessed in cells treated with oligomeric compounds. Using the transfection methods previously described, HeLa cells were treated with 100 nM of the uniform 2′-MOE oligomeric compound ISIS Number 327917 (SEQ ID NO: 335) targeting the mir-21 mature miRNA. Total RNA was isolated by lysing cells in 1 mL TRIZOL™ (Invitrogen) using the manufacturer's recommended protocols. […] Real-time RT-PCR analysis was also performed on HeLa cells treated with ISIS 327917 using a primer/probe set specific for the mir-21 pri-miRNA molecule [forward primer=ISIS 339332 ([…]; herein incorporated as SEQ ID NO.: 911), reverse primer-ISIS 339333 (TCGACTGGTGTTGCCATGA; herein incorporated as SEQ ID NO.: 912), and probe=ISIS 339334 ([…]; herein incorporated as SEQ ID NO.: 913)]. Total RNA was quantified using RiboGreen™ RNA quantification reagent (Molecular Probes, Inc. Eugene, Oreg.), expression levels observed for the target were normalized to 5.8S rRNA, and values were expressed relative to an untreated control (UTC).

In another data set the test system is mir-21 pri-miRNA. As to the kind of experiment: mir-21 pri-miRNA expression in HeLa cells (real-time RT-PCR).

Turning to “TCAACATCAGTCTGATAAGCTA (chemistry not given here) [ISIS 327917, uniform 2′-MOE PS; targets mir-21]”, the “expression of the luciferase reporter, pGL3-mir-21 sensor” value in the data set on mir-21 miRNA (HeLa, 10 nM or 50 nM) is recorded as “de-repressed the expression of the luciferase reporter”. For the same sequence, the “expression of the luciferase reporter, pGL3-mir-21 sensor, dose response” value with mir-21 miRNA (HeLa, 1.9, 5.5, 16.7 and 50 nM) is listed as “de-repressed the expression of the luciferase reporter, in a dose-dependent fashion”. In addition, in the data set with mir-21 mature miRNA, the “expression levels of the mir-21 mature miRNA” value is 50 % of those of untreated control cells. For the same sequence, in the data set with mir-21 pri-miRNA (HeLa, 100 nM), the “increase in levels of the mir-21 pri-miRNA molecule” value is recorded as “approximately 2 fold” and the “levels of the mir-21 pri-miRNA molecule” value was “stimulate an increase in levels of the mir-21 pri-miRNA molecule”. In the data set with mir-21 pri-miRNA (HeLa, 25, 50, 100 and 200 nM), the “mir-21 pri-miRNA levels, dose response” value is listed as “dose-responsive induction of mir-21 pri-miRNA levels”.

These data come from patent US8178506B2, “Oligomeric compounds and compositions for use in modulation of small non-coding RNAs” (Regulus Therapeutics Inc., priority 2003, dated 2012).
